In assay [1] the target is T1, arrestin-1 (monomerizing mutant F85A, F197A) (Bos taurus, UniProt P08168, F197A/F85A).
T1 construct: made in house; host or cells: E. coli NiCo (DE3) cells (New England Biolabs), pET-15b vector
The assay can be described thus: Fluorescence anisotropy binding of fluorescein-labelled peptides to arrestin-1. The arrangement: species or system bovine. The text has this: (§1) Synthesized cDNAs of bovine arrestin-1, human arrestin-2 and human arrestin-3 were ordered from Genewiz, amplified by PCR and cloned (Supplementary Information Table 5) into the pET-15b vector (Novagen), using the Gibson Assembly protocol. The constructs contained an N-terminal hexa histidine tag linked by a linker that contained a Tobacco Etch Virus cleavage site (TEV; […]). PCR was used to introduce the monomerizing arrestin-1 mutations (F85A, F197A)[58]. Note that this mutant was employed for fluorescence anisotropy, trypsin digestion, and NMR experiments. Wild-type arrestin-2 and -3 were used for fluorescence anisotropy and trypsin digestion experiments. […] The arrestin-1 in this construct had the wild-type sequence. Note that this construct differs slightly from that previously published[59],[60] and was optimized for purification. We verified the functionality of this fusion construct using the standard centrifugal pull-down assay using phosphorylated rhodopsin in native ROS membranes.
0.1–0.2 mg of lyophilized peptide was dissolved in 50 µl of 50 mM phosphate-buffered saline (PBS) buffer at pH 7.0, and then two molar equivalents of fluorescein-5-maleimide dye stock dissolved in dimethylsulfoxid was added. The reaction was carried out at RT in the dark. After 1 h the reaction was topped up with 1 ml of ice-cold 100% acetone and stored until the next day at −20 °C. The precipitated peptide was centrifuged (13,000 × g) for 10 min. The labeled and precipitated peptide was sedimented, and the supernatant was removed. The peptide was resuspended again in ice-cold acetone, stored for 1 h at −20 °C and centrifuged (13,000 × g) for 10 min. […] The precipitated peptide was dried at RT in the dark. It was dissolved in 50 µl of 20 mM Bis-Tris propane pH 7.0 and 150 mM NaCl and its concentration was determined by absorbance. A molar extinction coefficient of 70,000/M/cm at pH 7.0 was assumed for calculating the concentration of the labeled peptide stock.
An 11-step serial dilution series of arrestin in 20 mM Bis-Tris propane pH 7.0, 150 mM NaCl, 8 mM 2‑mercaptoethanol, 2% (w/w) BSA, 0.02% (v/v) Tween-20 was prepared and transferred to a black high-bottom 384-well plate (Greiner). As control for free peptide, a position with only buffer was included. The peptide was added at a final concentration of 20 nM to each well. The plate was closed by a clear cover and vortexed for 15 s. Afterwards it was centrifuged (800 × g) for 2 min and stored at RT for 20 min. The reading was performed by default settings of PHERAstar plate-reader (BMG Labtech) and excitation‑/emission-wavelengths of 485 nm (12 nm bandpass)/520 nm (30 nm bandpass) were used. The analysis was performed using Origin2016 (Microcal Inc) software by fitting the data to a one-to-one binding model:2 r=R0+△R*P/Kd+P, where r stands for anisotropy, R0 stands for anisotropy of the ligand, ΔR stands for anisotropy of the complex minus anisotropy of the ligand, P stands for the concentration of protein, and Kd stands for the dissociation constant of the ligand.

Another assay has as its system arrestin-2. In words: Fluorescence anisotropy binding of fluorescein-labelled peptides to arrestin-2. On the set-up: species or system human.
Description: as §1
0.1–0.2 mg of lyophilized peptide was dissolved in 50 µl of 50 mM phosphate-buffered saline (PBS) buffer at pH 7.0, and then two molar equivalents of fluorescein-5-maleimide dye stock dissolved in dimethylsulfoxid was added. The reaction was carried out at RT in the dark. […] It was dissolved in 50 µl of 20 mM Bis-Tris propane pH 7.0 and 150 mM NaCl and its concentration was determined by absorbance. […]

The next assay concerns arrestin-1 (F85A, F197A). In words: Limited trypsin digestion of arrestin-1 in presence of peptide. The assay is classed as biochemical, bovine. The note with it: arrestin:peptide 1:1.2, 35 °C, SDS PAGE.
Description: as §1
Arrestin (60 µg) was mixed at a 1 to 1.2 molar ratio with peptide and preincubated at RT for 5 min before 1 μl of 0.15 mg/ml trypsin stock was added. The enzymatic digestion was carried out at 35 °C (20 mM Bis-Tris propane pH 7.0, 150 mM NaCl, 10 mM 2‑Mercaptoethanol and 2 mM EDTA). At certain time points (5, 15, 30, 60, 90 min), 5 μl aliquots were quenched with heat incubation in the presence of 20 μl SDS loading buffer (95 °C, 5 min) and then subjected to SDS PAGE. Bands were visualized with InstantBlue (Expedeon).

The subject of assay [2] is arrestin-1 mutants I72B and F197NBD with nonphosphorylated light-activated rhodopsin in ROS membranes. The assay can be described thus: Ternary complex formation (site-directed fluorescence and centrifugal pull-down). The assay is classed as biochemical, bovine. As to conditions: 10 µM rhodopsin in ROS, 1 µM arrestin-1 I72B or F197NBD, 100 µM peptide, pH 7. The source says:
Recombinant bovine arrestin-1 cloned into the pET15b vector was expressed and purified as described. The basic construct was a modified wild-type sequence that contained no native cysteines (C63A, C128S and C143A) nor tryptophans (W194F). Single cysteine residues were introduced by PCR at sites 72 or 197 as previously described. The I72C mutant was labeled with monobromobimane (Thermo Fisher) and is referred to as I72B. The F197C mutant was labeled with N,N′-Dimethyl-N-(Iodoacetyl)-N′-(7-Nitrobenz-2-Oxa-1,3-Diazol-4-yl)Ethylenediamine (IANBD amide, Thermo Fisher) and is referred to as F197NBD. Labeling was carried out as previously described[43],[61]. Both labeled mutants were assessed to be functionally similar to wild-type arrestin-1 using the Extra Meta II assay, which determines the ability of arrestin-1 to bind and stabilize the active Meta II form of rhodopsin[64].
Under dim-red light, samples were prepared that contained nonphosphorylated rhodopsin (10 µM) in ROS membranes, 1 µM arrestin-1 I72B or F197NBD, ±100 µM peptide in 50 mM HEPES, 130 mM NaCl, pH 7 (150 or 200 µl sample volume). One hundred microliters of the sample was used for fluorescence measurements, and the remainder was used for the centrifugal pull-down assay (50 µl per assay). Steady-state fluorescence measurements were performed using a SPEX Fluorolog (1680) instrument in front-face mode. Bimane fluorescence was recorded using an excitation wavelength of 400 nm and emission 424–600 nm, and NBD fluorescence was recorded using an excitation wavelength of 500 nm and emission 524–660 (2 nm step size, 0.5 s integration per point). Excitation slits were narrowed to 0.1−0.2 nm to minimize light-activation of rhodopsin, and emission slits were set at 4 nm. Pull-down analysis was performed by centrifuging samples at 16,000 × g for 10 min at 20 °C. Selected samples were light activated (>495 nm) for 15 s prior to centrifugation (appr. 60 s delay time). Following centrifugation, the supernatants were removed, and the pellets were solubilized in loading buffer containing 2% SDS and subjected to SDS PAGE. Bands were visualized using Coomassie Brilliant Blue.

These results are taken from PMC6424980, “Distinct G protein-coupled receptor phosphorylation motifs modulate arrestin affinity and activation and global conformation” (Nature Communications, 2019).

“Also recorded” adds a separate entry of the source.

T1 sequence (P08168 whole entry F85A/F197A): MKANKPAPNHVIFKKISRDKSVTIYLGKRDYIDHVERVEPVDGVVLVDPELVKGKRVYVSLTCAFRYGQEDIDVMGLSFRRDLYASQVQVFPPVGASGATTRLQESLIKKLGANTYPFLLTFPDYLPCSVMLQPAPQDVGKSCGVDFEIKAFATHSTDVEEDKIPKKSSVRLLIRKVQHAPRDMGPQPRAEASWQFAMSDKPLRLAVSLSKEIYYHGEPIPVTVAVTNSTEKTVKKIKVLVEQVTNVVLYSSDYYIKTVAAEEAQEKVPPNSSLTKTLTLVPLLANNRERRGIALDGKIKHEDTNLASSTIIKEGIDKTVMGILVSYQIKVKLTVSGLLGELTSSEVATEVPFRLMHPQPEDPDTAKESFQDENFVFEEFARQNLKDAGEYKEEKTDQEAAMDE

As to “CDDEASTTVSKTETSQVAPA [5P, multiply phosphorylated rhodopsin C-terminus peptide lacking key site pS343]”, in assay [1], the “binding to arrestin-1 (in words)” value is “significant loss of affinity”. Also, the “binding to arrestin-2 (in words)” value in the assay on arrestin-2 was “bound well”. Besides, the “limited trypsin digest pattern of arrestin-1 (conformational change, C-tail displacement)” value in the assay on arrestin-1 (F85A, F197A) was “inability to induce conformational changes”. In assay [2], the “ternary complex formation (arrestin-1, nonphosphorylated rhodopsin, peptide)” value was “significant reduction of ternary complex formation; also recorded: could still stimulate ternary complex formation”.
